Molecules are shown by their SMILES. A value given as a limit tells only on which side of the number the result lay.

The results in this text go back to ChEMBL document CHEMBL4020706, “Design, synthesis and biological evaluation of novel hydroxamates and 2-aminobenzamides as potent histone deacetylase inhibitors and antitumor agents” (Eur J Med Chem, 2017).

One experiment deals with MGC-803. Briefly: Antiproliferative activity against human MGC803 cells after 72 hrs by CCK-8 reagent based assay. It counts as functional, cell-based. Conditions: MGC-803, 72 h. Background: Tetrazolium dyes change colour on reduction, which living cells bring about.
Experiment [1] deals with A549. Briefly: Antiproliferative activity against human A549 cells after 72 hrs by CCK-8 reagent based assay. It counts as functional, cell-based. Conditions: A549, 72 h.
For another experiment, the system named is HepG2. Put plainly: Antiproliferative activity against human HepG2 cells after 72 hrs by CCK-8 reagent based assay. Conditions: HepG2, 72 h. The format is functional, cell-based.
Another experiment concerns HCT-116. Briefly: Antiproliferative activity against human HCT116 cells after 72 hrs by CCK-8 reagent based assay. It counts as functional, cell-based. Conditions: HCT-116, 72 h.
The subject of experiment [2] is A549. Put plainly: Induction of apoptosis in human A549 cells assessed as early apoptotic cells at 4 umol/L after 48 hrs by Alexa Fluor 488 Annexin/propidium iodide staining-based flow cytometry (reference value: 3.41%). The format is functional. A general note: In flow cytometry, cells or beads pass a laser one at a time.
The test system of experiment [3] is A549. Put plainly: Induction of apoptosis in human A549 cells assessed as necrotic cells at 8 umol/L after 48 hrs by Alexa Fluor 488 Annexin/propidium iodide staining-based flow cytometry (reference value: 0.87%). The format is functional.
The test system of experiment [4] is A549. Briefly: Induction of apoptosis in human A549 cells assessed as early apoptotic cells at 8 umol/L after 48 hrs by Alexa Fluor 488 Annexin/propidium iodide staining-based flow cytometry (reference value: 3.41%). The format is functional.
Experiment [5] concerns A549. Briefly: Cell cycle arrest in human A549 cells assessed as accumulation at S phase at 16 umol/L after 48 hrs by propidium iodide staining-based flow cytometry (reference value: 15.13%). The format is functional.
Experiment [6] deals with A549. Put plainly: Induction of apoptosis in human A549 cells assessed as late apoptotic cells at 4 umol/L after 48 hrs by Alexa Fluor 488 Annexin/propidium iodide staining-based flow cytometry (reference value: 2.93%). It counts as functional.
Experiment [7] deals with A549. Briefly: Cell cycle arrest in human A549 cells assessed as accumulation at G0/G1 phase at 2 umol/L after 48 hrs by propidium iodide staining-based flow cytometry (reference value: 75.77%). The format is functional.
Experiment [8] has as its system A549. Briefly: Induction of apoptosis in human A549 cells assessed as viable cells at 8 umol/L after 48 hrs by Alexa Fluor 488 Annexin/propidium iodide staining-based flow cytometry (reference value: 92.79%). The format is functional. As to conditions: A549, 48 h, read-out: Activity.
Experiment [9] concerns A549. Put plainly: Induction of apoptosis in human A549 cells assessed as viable cells at 4 umol/L after 48 hrs by Alexa Fluor 488 Annexin/propidium iodide staining-based flow cytometry (reference value: 92.79%). It counts as functional. As to conditions: A549, 48 h, read-out: Activity.
For experiment [10], the system named is A549. Put plainly: Cell cycle arrest in human A549 cells assessed as accumulation at S phase at 2 umol/L after 48 hrs by propidium iodide staining-based flow cytometry (reference value: 15.13%). The format is functional.
The test system of experiment [11] is A549. Briefly: Induction of apoptosis in human A549 cells assessed as late apoptotic cells at 8 umol/L after 48 hrs by Alexa Fluor 488 Annexin/propidium iodide staining-based flow cytometry (reference value: 2.93%). The format is functional.
The test system of experiment [12] is A549. Put plainly: Cell cycle arrest in human A549 cells assessed as accumulation at G2/M phase at 16 umol/L after 48 hrs by propidium iodide staining-based flow cytometry (reference value: 9.1%). Conditions: at 16 µM. The format is functional.
Experiment [13] concerns A549. Put plainly: Cell cycle arrest in human A549 cells assessed as accumulation at G2/M phase at 2 umol/L after 48 hrs by propidium iodide staining-based flow cytometry (reference value: 9.1%). It counts as functional. As to conditions: at 2 µM.
Experiment [14] has as its system A549. Put plainly: Induction of apoptosis in human A549 cells assessed as necrotic cells at 4 umol/L after 48 hrs by Alexa Fluor 488 Annexin/propidium iodide staining-based flow cytometry (reference value: 0.87%). It counts as functional.
The subject of experiment [15] is A549. Briefly: Cell cycle arrest in human A549 cells assessed as accumulation at G0/G1 phase at 16 umol/L after 48 hrs by propidium iodide staining-based flow cytometry (reference value: 75.77%). The format is functional.
For experiment [16], the system named is A549. Briefly: Inhibition of colony formation in human A549 cells after 7 days by crystal violet staining based assay. The format is functional, cell-based.

One may read the IC50 as the point on the concentration scale where inhibition reaches its midpoint. The low end stands for greater potency, the high end for weaker potency. Turning to `Nc1ccccc1NC(=O)/C=C/c1ccc(COc2ccccc2)cc1`, the IC50 in the experiment on MGC-803, with A549 [1] and with HepG2 was greater than 32 µM each time.
For `Nc1ccccc1NC(=O)c1ccc(COc2ccc(Cl)cc2)cc1`, the IC50 in the experiment on MGC-803 was greater than 32 µM; with HCT-116 it was 17.3 µM; in the experiment on A549 [1], greater than 32 µM; with HepG2, greater than 32 µM.
For the compound `O=C(/C=C/c1ccc(CN2CCc3ccccc32)cc1)NO`, the IC50 came to 5.48 µM with A549 [1] and 14.9 µM in the experiment with HepG2.
On to `Cc1ccc(OCc2ccc(C(=O)Nc3ccccc3N)cc2)cc1`, for which the IC50 worked out at 6.53 µM with MGC-803, 4.86 µM in the experiment with HCT-116, 5.43 µM with A549 [1] and 6.59 µM in the experiment with HepG2.
On the same counts, the results for `Nc1ccccc1NC(=O)c1ccc(COc2ccccc2)cc1` are 5.67 µM, 4.89 µM, 6.76 µM and 6.7 µM.
Turning to `Nc1cc(F)ccc1NC(=O)c1ccc(COc2ccccc2)cc1`, the IC50 in the experiment with MGC-803 amounted to 6.02 µM; with A549 [1] it was 8.34 µM; in the experiment with HepG2, 7.02 µM.
As to `Nc1ccccc1NC(=O)c1ccc(COc2ccc([N+](=O)[O-])cc2)cc1`, the IC50 in the experiment with MGC-803, in the experiment on HCT-116, with A549 [1] and in the experiment on HepG2 was greater than 32 µM in each case.
`CC(=O)Nc1ccc(C(=O)Nc2ccccc2N)cc1` [TACEDINALINE]: the Activity came to 6.96% in the experiment on A549 [2]; 1.8% with A549 [3]; 7.82% in the experiment on A549 [4]; 4.66% in the experiment with A549 [5]; 4.39% with A549 [6]; 81.59% in the experiment on A549 [7]. In addition, the Activity was 9.31% in the experiment on A549 [10]; 4.76% in the experiment on A549 [11]; 6.02% in the experiment with A549 [12]; 9.1% in the experiment with A549 [13]; 2.91% in the experiment on A549 [14]; 89.32% in the experiment on A549 [15]. For the same compound, in the experiment with A549 [8], the viability at 8 µM worked out at 85.6%. In addition, the viability at 4 µM in the experiment with A549 [9] amounted to 85.7%. In addition, the IC50 in the experiment on MGC-803 was determined as 11.6 µM; with HCT-116 it was 7.71 µM; with A549 [1], 20.1 µM; in the experiment with HepG2, 18.5 µM.
Take `O=C(/C=C/c1ccc(COc2ccccc2)cc1)NO`: the values for the IC50 in the experiment with A549 [1] and in the experiment on HepG2 were 5.77 µM and 8.4 µM, respectively.
For the compound `CCc1ccc(OCc2ccc(C(=O)Nc3ccccc3N)cc2)cc1`, the IC50 in the experiment on MGC-803 was 5.88 µM; in the experiment on HCT-116 it was 4.83 µM; in the experiment on A549 [1], 6.42 µM; with HepG2 it was 6.96 µM.
On to `C/C(=N\O)c1ccc(OCc2ccc(C(=O)NO)cc2)cc1`, for which the IC50 worked out at 8.93 µM in the experiment with A549 [1] and 7.77 µM in the experiment on HepG2.
Consider `Nc1ccccc1NC(=O)c1ccc(CN2CCc3cc(Br)ccc32)cc1`, for which the results for the IC50 in the experiment with MGC-803 and with HepG2 were 7.39 µM and 10.7 µM, respectively.
`Nc1ccccc1NC(=O)/C=C/c1ccc(CN2CCc3ccccc32)cc1`: the IC50 was greater than 32 µM with MGC-803, 13.4 µM with A549 [1] and greater than 32 µM in the experiment on HepG2.
For the compound `Nc1ccccc1NC(=O)c1ccc(COc2ccc(Br)cc2)cc1`, the IC50 in the experiment on MGC-803 was greater than 32 µM; in the experiment with HCT-116, greater than 32 µM; with A549 [1], 24.4 µM; in the experiment with HepG2, greater than 32 µM.
Turning to `Nc1ccc(F)cc1NC(=O)c1ccc(CNC(=O)/C=C/c2cccnc2)cc1`, the Activity is 10.55% with A549 [2]; 2.1% in the experiment with A549 [3]; 13.48% with A549 [4]; 7.87% in the experiment on A549 [5]; 6.27% in the experiment on A549 [6]; 80.14% in the experiment on A549 [7]. Moreover, the Activity amounted to 10.02% in the experiment with A549 [10]; 8.94% in the experiment with A549 [11]; 6.46% with A549 [12]; 9.84% in the experiment on A549 [13]; 1.52% with A549 [14]; 85.67% with A549 [15]. For the same compound, the viability at 8 µM in the experiment on A549 [8] amounted to 75.5%. For the same compound, the viability at 4 µM in the experiment with A549 [9] was determined as 81.6%. In addition, the IC50 in the experiment with MGC-803 was 6.44 µM; with HCT-116, 2.28 µM; in the experiment on A549 [1] it was 11 µM; in the experiment on HepG2, 22.7 µM.
For `Nc1ccccc1NC(=O)/C=C/c1ccc(CN2CCc3ccccc3C2)cc1`, the IC50 in the experiment on MGC-803 is 14.2 µM; in the experiment with HepG2, 13.5 µM.
For `CC(C)c1ccc(OCc2ccc(C(=O)Nc3ccccc3N)cc2)cc1`, the IC50 in the experiment on MGC-803 is greater than 32 µM; with HCT-116 it was 4.57 µM; in the experiment with A549 [1], 7.46 µM; with HepG2, greater than 32 µM.
`CCCc1ccc(OCc2ccc(C(=O)Nc3ccccc3N)cc2)cc1`: the IC50 in the experiment with MGC-803 worked out at 4.42 µM; in the experiment with HCT-116, 3.23 µM; in the experiment on A549 [1] it was 5.21 µM; in the experiment with HepG2, 4.75 µM.
For `COc1ccc(OCc2ccc(C(=O)Nc3ccccc3N)cc2)cc1`, the IC50 turned out to be 3.48 µM in the experiment with MGC-803, 2.02 µM with HCT-116, 5.53 µM in the experiment with A549 [1] and 4.2 µM in the experiment with HepG2. The inhibition result in the experiment on A549 [16] was “Dose-dependent effect”.
For the compound `Nc1cnccc1NC(=O)/C=C/c1ccc(COc2ccccc2)cc1`, the IC50 in the experiment on MGC-803, in the experiment on A549 [1] and in the experiment on HepG2 was greater than 32 µM each time.
Regarding `O=C(NO)c1ccc(COc2ccccc2)cc1`, the values for the IC50 in the experiment with A549 [1] and in the experiment with HepG2 were 28 µM and 29.6 µM, respectively.
